We go through 23 compounds from patent US20170000749A1, “Methods for Treating Cognitive Disorders Using Inhibitors of Histone Deacetylase” (Forum Pharmaceuticals, Inc., priority 2008, published 2017).

Like-named read-outs stand apart in the source and are kept apart here.

One may read the IC50 as the concentration at which inhibition is half-maximal.

In assay [1] the target is one or more of HDAC-1, HDAC-2, HDAC-3, HDAC-4, HDAC-5, HDAC-6, HDAC-7, HDAC-8, HDAC-9, HDAC-10 and HDAC-11. The assay is described as follows: Inhibition of Histone Deacetylase Enzymatic Activity (Boc-Lys(Ac)-AMC substrate, Fluor-de-Lys developer). In kind it is biochemical. The settings on record: read-out: HDAC Inhibition (IC50 μM) HDAC Enzyme. The protocol: The following protocol is used to assay the compounds of the disclosure.
The mixture is pre-incubated for 5 minutes at room temperature. The reaction is started by bringing the temperature to 37° C. and adding 16 μl substrate. Total reaction volume is 50 μl.
In the Tables 8, 9 and 10, A≦0.05 μM; 0.05 μM<B≦0.1 μM; 0.1 μM<C≦1 μM; and 1 μM<D≦10 μM.

In assay [2] the test system is HDAC activity in primary mouse cortical cultures. The assay is described as follows: Whole-Cell Histone Deacetylase (HDAC) Inhibition Assay in Primary Mouse Cortical Cultures. In kind it is cell-based. The settings on record: whole-cell (WC), mouse cortical neurons, read-out: HDAC Inhibition (IC50 μM) WC mouse cortical neurons. As to the method: Primary neocortical cultures are established through the dissection of the neocortex from E17 embryos harvested from time-pregnant Balb/C mice. Following dissection, the neocortical tissue specimens undergo digestion by incubation at 37° C. for 10 minutes in dissection medium (1×HBSS/10 mM HEPES/1 mM Sodium Pyruvate) supplemented with (0.25%) Trypsin and (0.1%) DNase I. Digested tissue is washed and resuspended in plating medium (NeuroBasal/10% HS/0.5 mM L-Glutamine (Invitrogen Corporation)) for trituration. Additional plating medium is added, and the contents are passed over a 70 um cell-strainer. The cell-density is quantified using a hemacytometer, and dilutions are made to allow for the plating of 50000 cells/well/100 uL in 96-well PDL-coated plates. Plates are incubated for 4-5 hours in 37° C./5% CO2-incubator, after which time the entire volume is exchanged to feeding medium (NeuroBasal/2% B-27 Serum-free supplement/0.5 mM L-Glutamine/1% Penicillin-Streptomycin (Invitrogen Corporation)). The cultures undergo two 50% fresh feeding medium exchanges at 3 days in vitro (DIV3), and again at DIV7.
Compounds for testing are resuspended in dimethyl sulphoxide (DMSO), and further diluted in DMSO for a ten-point dose-response curve, with appropriate controls. Each master plate is assayed in triplicate. […] Three DIV9 culture plates are leveled to 50 uL/well, onto which each has overlaid 50 uL/well of the diluted daughter plate. The plates are returned to the 37° C./5% CO2-incubator for 16-18 hours.
The next step of the assay involves the exposure of a HDAC colorimetric substrate, comprising an acetylated lysine side chain, to the compound-treated neuronal cultures. Based on the ability of the compound to inhibit HDAC activity in the neuronal cultures, the substrate is deacetylated by HDACs, and subsequently sensitized. […] Compound-incubated culture plates are again leveled to 50 uL/well and 2 uL/well of 7.5 mM BOC-Lys (Ac)-AMC substrate is added and thoroughly mixed. Plates are returned to the 37° C./5% CO2-incubator for 1 hour.
The final addition to the culture plates entails treatment with a Fluor de Lys™-based developer (BIOMOL Research Laboratories, Inc.) to produce a fluorophore, which is analyzed using a spectrophotometer. The developer solution (1×Fluor de Lys™/1% NP-40/1 uM TSA in HDAC Buffer Solution) is prepared, and 50 uL/well is added to each of the wells of the culture plates. […] The plates are returned to the 37° C./5% CO2-incubator for 10-15 minutes, after which time, they are removed and set in the dark at room temperature for 5-10 minutes.
Primary neocortical cultures were established through the dissection of the neocortex from E17 embryos harvested from time-pregnant Balb/C mice. Following dissection, the neocortical tissue specimens underwent digestion by incubation at 37° C. for 10 minutes in dissection medium (1×HBSS/10 mM HEPES/1 mM Sodium Pyruvate) supplemented with (0.25%) Trypsin and (0.1%) DNase I. Digested tissue was washed and resuspended in plating medium (NeuroBasal/10% HS/0.5 mM L-Glutamine (Invitrogen Corporation)) for trituration. Additional plating medium was added, and the contents passed over a 70 um cell-strainer. The cell-density was quantified using a hemacytometer, and dilutions made to allow for the plating of 50000 cells/well/100 uL in 96-well PDL-coated plates. Plates were incubated for 4-5 hours in 37° C./5% CO2-incubator, after which time the entire volume was exchanged to feeding medium (NeuroBasal/2% B-27 Serum-free supplement/0.5 mM L-Glutamine/l % Penicillin-Streptomycin (Invitrogen Corporation)). The cultures underwent two 50% fresh feeding medium exchanges at 3 days in vitro (DIV3), and again at DIV7.
Compounds for testing were resuspended in dimethyl sulphoxide (DMSO), and further diluted in DMSO for a ten-point dose-response curve, with appropriate controls. Each master plate was assayed in triplicate.

For `O=C(NO)c1ccc(N2C[C@@H]3C[C@H]2CN3c2cccc(C(F)(F)F)c2)cc1F` [2-fluoro-N-hydroxy-4-((1S,4S)-5-(3-(trifluoromethyl)phenyl)-2,5-diazabicyclo[2.2.1]heptan-2-yl)benzamide], the figures for the IC50 in assay [1] (Table 9) and in assay [2] (Table 9) were 0.1 to 1 µM and 5 to 15 µM, respectively.

Consider `O=C(NO)c1ccc(C2Nc3ccccc3Oc3ccccc32)cc1` (stereo not shown) [4-(10,11-dihydrodibenzo[b,f][1,4]oxazepin-11-yl)-N-hydroxybenzamide], for which the IC50 was below 0.05 µM in assay [1] (Table 8) and 1 to 5 µM in assay [2] (Table 8).

Turning to `N#Cc1cccc(N2C[C@@H]3C[C@H]2CN3c2ccc(C(=O)NO)cc2)c1` [4-((1S,4S)-5-(3-cyanophenyl)-2,5-diazabicyclo[2.2.1]heptan-2-yl)-N-hydroxybenzamide], the concentration for half-maximal inhibition (IC50) was 0.1 to 1 µM in assay [1] (Table 9) and 1 to 5 µM in assay [2] (Table 9).

Take `O=C(NO)c1ccc(CN2C(=O)c3cccnc3N(C3CC3)c3ccccc32)cc1` [4-((11-cyclopropyl-5-oxo-5H-benzo[b]pyrido[2,3-e][1,4]diazepin-6(11H)-yl)methyl)-N-hydroxybenzamide]: the IC50 in assay [1] (Table 10) lay within 0.1 to 1 µM; in assay [2] (Table 10), 5 to 15 µM.

On to `O=C(CCCCCN1C(=O)c2ccccc2N(C2CC2)c2ccccc21)NO` [6-(5-cyclopropyl-11-oxo-5H-dibenzo[b,e][1,4]diazepin-10(11H)-yl)-N-hydroxyhexanamide], for which the IC50 was 0.1 to 1 µM in assay [1] (Table 10) and 1 to 5 µM in assay [2] (Table 10).

Consider `O=C(CCCCCN1c2ccccc2CCc2ccccc21)NO` [6-(10,11-dihydro-5H-dibenzo[b,f]azepin-5-yl)-N-hydroxyhexanamide], for which the half-inhibitory concentration (IC50) is below 0.05 µM in assay [1] (Table 10) and 1 to 5 µM in assay [2] (Table 10).

Regarding `O=C(CCCCCN1C(=O)c2cccnc2N(C2CC2)c2ccccc21)NO` [6-(11-cyclopropyl-5-oxo-5H-benzo[b]pyrido[2,3-e][1,4]diazepin-6(11H)-yl)-N-hydroxyhexanamide], the values for the IC50 in assay [1] (Table 10) and in assay [2] (Table 10) were 0.1 to 1 µM and 1 to 5 µM, respectively.

With `O=C(CCCCCCN1C(=O)c2ccccc2N(C2CC2)c2ccccc21)NO` [7-(5-cyclopropyl-11-oxo-5H-dibenzo[b,e][1,4]diazepin-10(11H)-yl)-N-hydroxyheptanamide], the figures for the IC50 in assay [1] (Table 10) and in assay [2] (Table 10) were 0.1 to 1 µM and 1 to 5 µM, respectively.

With `O=C(CCCCCCN1C(=O)c2cccnc2N(C2CC2)c2ccccc21)NO` [7-(11-cyclopropyl-5-oxo-5H-benzo[b]pyrido[2,3-e][1,4]diazepin-6(11H)-yl)-N-hydroxyheptanamide], the half-inhibitory concentration (IC50) in assay [1] (Table 10) lay within 0.05 to 0.1 µM; in assay [2] (Table 10), 1 to 5 µM.

On to `O=C(CCCCCCN1Cc2ccccc2Oc2ccccc21)NO` [7-(dibenzo[b,f][1,4]oxazepin-10(11H)-yl)-N-hydroxyheptanamide], for which the half-inhibitory concentration (IC50) in assay [1] (Table 10) is 0.1 to 1 µM; in assay [2] (Table 10), above 15 µM.

For the compound `O=C(CCCCCCCN1C(=O)c2cccnc2N(C2CC2)c2ccccc21)NO` [8-(11-cyclopropyl-5-oxo-5H-benzo[b]pyrido[2,3-e][1,4]diazepin-6(11H)-yl)-N-hydroxyoctanamide], the half-inhibitory concentration (IC50) in assay [1] (Table 10) was 0.1 to 1 µM; in assay [2] (Table 10), below 1 µM.

As for `O=C(CCCCCCC(=O)N1Cc2ccccc2Oc2ccccc21)NO` [8-(dibenzo[b,f][1,4]oxazepin-10(11H)-yl)-N-hydroxy-8-oxooctanamide], the half-maximal inhibitory concentration (IC50) in assay [1] (Table 10) fell in the range of 0.1 to 1 µM; in assay [2] (Table 10) it was 1 to 5 µM.

As for `O=C(NO)c1cnc(N2C[C@@H]3C[C@H]2CN3C(=O)OCc2ccccc2)nc1` [(1S,4S)-benzyl 5-(5-(hydroxycarbamoyl)pyrimidin-2-yl)-2,5-diazabicyclo[2.2.1]heptane-2-carboxylate], the IC50 is below 0.05 µM in assay [1] (Table 9) and below 1 µM in assay [2] (Table 9).

With `O=C(NO)c1cnc(N2C[C@@H]3C[C@H]2CN3C(=O)OC2CCCC2)nc1` [(1S,4S)-cyclopentyl 5-(5-(hydroxycarbamoyl)pyrimidin-2-yl)-2,5-diazabicyclo[2.2.1]heptane-2-carboxylate], the half-inhibitory concentration (IC50) is below 0.05 µM in assay [1] (Table 9) and below 1 µM in assay [2] (Table 9).

Regarding `O=C(NO)c1cnc(N2C[C@@H]3C[C@H]2CN3C(=O)OCC2CC2)nc1` [(1S,4S)-cyclopropylmethyl 5-(5-(hydroxycarbamoyl)pyrimidin-2-yl)-2,5-diazabicyclo[2.2.1]heptane-2-carboxylate], the IC50 in assay [1] (Table 9) is below 0.05 µM; in assay [2] (Table 9), below 1 µM.

Turning to `CC(C)COC(=O)N1C[C@@H]2C[C@H]1CN2c1ncc(C(=O)NO)cn1` [(1S,4S)-isobutyl 5-(5-(hydroxycarbamoyl)pyrimidin-2-yl)-2,5-diazabicyclo[2.2.1]heptane-2-carboxylate], the concentration for half-maximal inhibition (IC50) in assay [1] (Table 9) was below 0.05 µM; in assay [2] (Table 9), below 1 µM.

In the case of `CC(C)OC(=O)N1C[C@@H]2C[C@H]1CN2c1ncc(C(=O)NO)cn1` [(1S,4S)-isopropyl 5-(5-(hydroxycarbamoyl)pyrimidin-2-yl)-2,5-diazabicyclo[2.2.1]heptane-2-carboxylate], the concentration for half-maximal inhibition (IC50) in assay [1] (Table 9) is below 0.05 µM; in assay [2] (Table 9), below 1 µM.

With `O=C(NO)c1cnc(N2C[C@@H]3C[C@H]2CN3C(=O)OCc2cccnc2)nc1` [(1S,4S)-pyridin-3-ylmethyl 5-(5-(hydroxycarbamoyl)pyrimidin-2-yl)-2,5-diazabicyclo[2.2.1]heptane-2-carboxylate], the IC50 in assay [1] (Table 9) was below 0.05 µM; in assay [2] (Table 9), below 1 µM.

Regarding `CC(C)(C)OC(=O)N1C[C@@H]2C[C@H]1CN2c1ncc(C(=O)NO)cn1` [(1S,4S)-tert-butyl 5-(5-(hydroxycarbamoyl)pyrimidin-2-yl)-2,5-diazabicyclo[2.2.1]heptane-2-carboxylate], the IC50 in assay [1] (Table 9) was below 0.05 µM; in assay [2] (Table 9), below 1 µM.

Consider `O=C(NO)c1cnc(N2C[C@@H]3C[C@H]2CN3C(=O)OC2CCOCC2)nc1` [(1S,4S)-tetrahydro-2H-pyran-4-yl 5-(5-(hydroxycarbamoyl)pyrimidin-2-yl)-2,5-diazabicyclo[2.2.1]heptane-2-carboxylate], for which the IC50 is below 0.05 µM in assay [1] (Table 9) and below 1 µM in assay [2] (Table 9).

Take `O=C(NO)c1cnc(N2CCN(C3=Nc4ccccc4Oc4ccc(Cl)cc43)CC2)nc1` [(E)-2-(4-(2-chlorodibenzo[b,f][1,4]oxazepin-11-yl)piperazin-1-yl)-N-hydroxypyrimidine-5-carboxamide]: the IC50 in assay [1] (Table 8) is below 0.05 µM; in assay [2] (Table 8) it was 5 to 15 µM.

In the case of `O=C(/C=C/c1ccc(CN2C(=O)c3cccnc3N(C3CC3)c3ccccc32)cc1)NO` [(E)-3-(4-((11-cyclopropyl-5-oxo-5H-benzo[b]pyrido[2,3-e][1,4]diazepin-6(11H)-yl)methyl)phenyl)-N-hydroxyacrylamide], the IC50 was below 0.05 µM in assay [1] (Table 10) and below 1 µM in assay [2] (Table 10).

As for `O=C(/C=C/c1ccc(CN2c3ccccc3C=Cc3ccccc32)cc1)NO` [(E)-3-(4-(((Z)-5H-dibenzo[b,f]azepin-5-yl)methyl)phenyl)-N-hydroxyacrylamide], the IC50 lay within 0.05 to 0.1 µM in assay [1] (Table 10) and 1 to 5 µM in assay [2] (Table 10).
